{"source": "paper PMC3667888", "about": "(Channels, 2013)", "origin": "cited, not measured here", "system": "Kv1 channels", "conditions": "applied externally; cited from earlier work", "data": [{"smiles": "CCCCC/C=C\\C/C=C\\C/C=C\\C/C=C\\CCCC(=O)NCCO", "note": "[AEA, anandamide]", "values": [{"measurement": "inhibition of Kv1 channels by anandamide", "value": "not inhibited"}]}]}
